Laboratory results as given in paper PMC12980401 (Science translational medicine, 2025).

Key:
chow-fed rats [1] = experiment: Counterregulatory response to hindbrain glucoprivation; type: in vivo, rat
Half-life in rat serum = type: in vitro ADME
rats = experiment: Kaolin intake; details: fourth ICV 20 μg
chow-fed rats [2] = type: in vivo, rat
[3] = system: chow-fed and HFD-fed rats; experiment: Oral glucose tolerance test; type: in vivo, rat; details: for Glucose-stimulated plasma insulin: OGTT
musk shrew = experiment: Food intake, body weight and emesis in musk shrews; type: in vivo, Suncus murinus; details: intraperitoneal 5 mg/kg; for Food intake in musk shrews: n = 9
chow-fed rats [4] = experiment: Telemetry of core body temperature, physical activity and heart rate; details: lateral ventricle, high dose ODN (100 μg), TDN 20 and 100 μg
HFD-fed rats = type: in vivo, rat
lean and DIO mice = experiment: Food intake and body weight after intraperitoneal injection in mice; type: in vivo, mouse
DIO mice = experiment: Hyperinsulinemic-euglycemic clamp in DIO mice; type: in vivo, mouse; details: single intraperitoneal 5 mg/kg before insulin infusion, vehicle 18%
[5] = system: chow-fed and HFD-fed rats; experiment: Insulin tolerance test; type: in vivo, rat; details: fourth ICV TDN 200 μg/2 μl
[6] = HFD-fed rats, fourth ICV TDN 200 μg/2 μl
[7] = HFD-fed rats, lateral ventricle 200 μg/2 μl

Molecule: O=C[C@H](O)[C@@H](O)[C@H](O)[C@H](S)CO [5-TG, 5-thio-D-glucose]
- Food intake after glucoprivic agent (chow-fed rats [1]; lean rats, fourth ICV 210 μg at dark cycle onset, versus vehicle): increased food intake at 1 and 24 hours after injection

Molecule: octadecaneuropeptide [ODN]
- Half-life in rat serum (Half-life in rat serum; rat serum, average half-life (fig. S6, I and J)): 12.4 min
- Kaolin intake (rats): did not cause kaolin intake
- 24-hour body weight change (chow-fed rats [2]; lean chow-fed rats, fourth ICV ODN 0.2, 2 and 20 μg): without affecting 24-hour body weight
- Time to consume the first bout of food (latency) (chow-fed rats [2]; lean chow-fed rats, fourth ICV, 2 μg): delayed
- Size of the first meal (chow-fed rats [2]; lean chow-fed rats, fourth ICV, 20 μg): reduced
- Plasma glucagon after intraperitoneal insulin (chow-fed rats [1]; fourth ICV ODN 20 μg 15 min before ip insulin 0.75 U/kg, chow-fed rats): lowered plasma glucagon concentrations 30 min after intraperitoneal insulin
- 5-TG-induced hyperglycemia (1-hour blood glucose) (chow-fed rats [1]; lean rats, fourth ICV ODN 20 μg pretreatment before 5-TG 210 μg): blunted 5-TG–induced hyperglycemia 1 hour after injection
- 5-TG-mediated hyperphagia (chow-fed rats [1]; lean rats, fourth ICV ODN 20 μg/2 μl pretreatment before 5-TG 210 μg): suppressed 5-TG–mediated hyperphagia at the 4-hour time point
- Circulating free fatty acids after 5-TG (chow-fed rats [1]; plasma 30 min, fourth ICV ODN 20 μg before 5-TG): suppressed by hindbrain ODN pretreatment
- Glucose tolerance (OGTT) ([3]; DIO rats, fourth ICV 200 μg): markedly improved
- OGTT area under the curve ([3]; lean rats, fourth ICV 200 μg (higher dose)): reduced the overall area under the curve
- Glucose-stimulated plasma insulin ([3]; lean rats, fourth ICV 200 μg): without enhancing glucose-stimulated plasma insulin
- 24-hour body weight change in musk shrews (musk shrew): without affecting body weight at 24 hours
- Emetic episodes in musk shrews (musk shrew): caused no emetic episodes
- Food intake in musk shrews (musk shrew): suppressed food intake at 6 and 24 hours after injection
- Telemetry variables at individual hours (chow-fed rats [4]): decreased locomotor activity at hour 8
- 24-hour food intake and body weight (HFD-fed rats; HFD-maintained rats, fourth ICV, 20 μg): decreasing 24-hour food intake and body weight
- Meal duration 6 to 12 hours postinjection (HFD-fed rats; HFD-maintained rats, fourth ICV, highest dose (20 μg)): decreased meal duration

Molecule: tridecaneuropeptide [TDN]
- Half-life in rat serum (Half-life in rat serum; rat, serum): 21.2 min
- Body weight loss over 9 days (lean and DIO mice; DIO mice, daily intraperitoneal 5 mg/kg for 9 days): 4.7%
- Daily HFD intake (lean and DIO mice; DIO mice, daily intraperitoneal 5 mg/kg for 9 days, n = 6): suppressed HFD intake immediately on day 1
- 24-hour food intake and body weight (lean and DIO mice; lean mice, peripheral administration 5 mg/kg): no effect in lean mice
- OGTT AUC [3, 6]: lowered the OGTT AUC
- Glucose-stimulated plasma insulin [3, 6]: without heightening glucose-stimulated plasma insulin concentrations
- 24-hour body weight change in musk shrews (musk shrew): without altering 24-hour weight change
- Food intake in musk shrews (musk shrew): suppressed 24-hour food intake
- Suppression of endogenous glucose appearance (Ra) relative to baseline (DIO mice): 57%
- 24-hour body weight (HFD-fed rats; [7]): without an impact on body weight
- 24-hour food intake (HFD) (HFD-fed rats; [7]): suppressed 24-hour food intake
- Insulin sensitivity during insulin tolerance test [5]: improved by fourth ICV TDN

B1: recombinant DBI protein: recombinant diazepam binding inhibitor protein, parent of ODN (protein, UniProt P07108 2-87, looked up)
Acyl-CoA-binding protein: SQAEFEKAAEEVRHLKTKPSDEEMLFIYGHYKQATVGDINTERPGMLDFTGKAKWDAWNELKGTSKEDAMKAYINKVEELKKKYGI
- Chow intake (chow-fed rats [2]; chow-maintained rats, fourth ICV 2 μg/2 μl): suppressed chow intake at 6 and 12 hours postinjection
- HFD intake (HFD-fed rats; HFD-maintained rats, fourth ICV 2 μg/2 μl): without affecting HFD intake
